Data: patent publication US11542273B2, “Amide compound having bet proteolysis-inducing action and medicinal application thereof” (MITSUBISHI TANABE PHARMA CORPORATION, priority 2018, dated 2023)

Tests used:
[1] = target: BRD4 protein (Homo sapiens (Human), UniProt O60885); assay: BRD4 protein degradation inducing action in cancer cells (immunofluorescence, Operetta); type: cell-based; details: LNCaP cells, 6 hr treatment, fluorescence intensity
In short: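 LNCaP prostate cancer cells in 10% FBS/RPMI1640 were exposed to compound for 6 hr at 37° C, then fixed, permeabilized and immunostained for BRD4 with Alexa Fluor 488 or 546 secondary antibodies plus Hoechst nuclear stain. Fluorescence was read by high-content imaging; DC50 is the concentration giving 50% of untreated signal, interpolated linearly between bracketing points.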

[2] = tested on: human prostate cancer LNCaP cells; assay: Cytotoxic action on cancer cells (WST-8, 96 hr); type: cell-based; details: Homo sapiens, LNCaP, 96 h, read-out: LNCaP cytotoxic activity: IC50
In short: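 Viable cell number, measured by WST-8, is compared with compound-free cultures after treatment. Cells are kept in 10% FBS/RPMI1640 at 37° C under 5% CO2, and IC50 comes from the line joining the two survival rates that bracket 50%.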

| Compound | DC50 [1] | IC50 [2] |
| --- | --- | --- |
| COC(=O)C[C@@H]1N=C(c2ccc(-c3ccc(CCC(=O)N[C@H](C(=O)N4C[C@H](O)C[C@H]4C(=O)N[C@@H](C)c4ccc(-c5scnc5C)cc4)C(C)(C)C)cc3)cc2)c2c(sc(C)c2C)-n2c(C)nnc21 [Example 28, methyl [(6S)-4-{4′-[3-({(2S)-1-[(2S,4R)-4-hydroxy-2-({(1S)-1-[4-(4-methyl-1,3-thiazol-5-yl)phenyl]ethyl}carbamoyl)pyrrolidin-1-yl]-3,3-dimethyl-1-oxobutan-2-yl}amino)-3-oxopropyl][1,1′-biphenyl]-4-yl}-2,3,9-trimethyl-6H-thieno[3,2-f][1,2,4]triazolo[4,3-a][1,4]diazepin-6-yl]acetate] | 0.023 nM | 0.044 nM |
| COC(=O)C[C@@H]1N=C(c2ccc(N3CCN(c4cccc(C(=O)N[C@H](C(=O)N5C[C@H](O)C[C@H]5C(=O)N[C@@H](C)c5ccc(-c6scnc6C)cc5)C(C)(C)C)n4)CC3)cc2)c2c(sc(C)c2C)-n2c(C)nnc21 [Example 177, methyl [(6S)-4-(4-{4-[6-({(2S)-1-[(2S,4R)-4-hydroxy-2-({(1S)-1-[4-(4-methyl-1,3-thiazol-5-yl)phenyl]ethyl}carbamoyl)pyrrolidin-1-yl]-3,3-dimethyl-1-oxobutan-2-yl}carbamoyl)pyridin-2-yl]piperazin-1-yl}phenyl)-2,3,9-trimethyl-6H-thieno[3,2-f][1,2,4]triazolo[4,3-a] [1,4]diazepin-6-yl]acetate] | 0.23 nM | 0.36 nM |
| COC(=O)C[C@@H]1N=C(c2ccc(NC(=O)CCc3ccc(OCCOCCOCCOCCOCCOCCOCCOCC(=O)N[C@H](C(=O)N4C[C@H](O)C[C@H]4C(=O)N[C@@H](C)c4ccc(-c5scnc5C)cc4)C(C)(C)C)cc3)cc2)c2c(sc(C)c2C)-n2c(C)nnc21 [Example 5, methyl [(6S)-4-(4-{3-[4-({(25S)-25-[(2S,4R)-4-hydroxy-2-({(18)-1-[4-(4-methyl-1,3-thiazol-5-yl)phenyl]ethyl}carbamoyl)pyrrolidine-1-carbonyl]-26,26-dimethyl-23-oxo-3,6,9,12,15,18,21-heptaoxa-24-azaheptacosan-1-yl}oxy)phenyl]propanamido}phenyl)-2,3,9-trimethyl-6H-thieno[3,2-f][1,2,4]triazolo[4,3-a][1,4]diazepin-6-yl]acetate] | 0.52 nM | 1.2 nM |
| Cc1ncsc1-c1ccc([C@H](C)NC(=O)[C@@H]2C[C@@H](O)CN2C(=O)[C@@H](NC(=O)COc2ccc(-c3ccc(C4=NC(O)c5nnc(C)n5-c5sc(C)c(C)c54)cc3)cc2)C(C)(C)C)cc1 (stereo partly drawn) [Example 30, (2S,4R)-4-hydroxy-1-[(2S)-2-(2-{[4′-(6-hydroxy-2,3,9-trimethyl-6H-thieno[3,2-f][1,2,4]triazolo[4,3-a][1,4]diazepin-4-yl)[1,1′-biphenyl]-4-yl]oxy}acetamido)-3,3-dimethylbutanoyl]-N-{(1S)-1-[4-(4-methyl-1,3-thiazol-5-yl)phenyl]ethyl}pyrrolidine-2-carboxamide] | 0.43 nM | 0.99 nM |
| COC(=O)C[C@@H]1N=C(c2ccc(N3CC[C@@H](OCC(=O)N[C@H](C(=O)N4C[C@H](O)C[C@H]4C(=O)N[C@@H](C)c4ccc(-c5scnc5C)cc4)C(C)(C)C)C3)cc2)c2c(sc(C)c2C)-n2c(C)nnc21 [Example Compound 69, methyl [(6S)-4-(4-{(3R)-3-[2-({(2S)-1-[(2S,4R)-4-hydroxy-2-({(1S)-1-[4-(4-methyl-1,3-thiazol-5-yl)phenyl]ethyl}carbamoyl)pyrrolidin-1-yl]-3,3-dimethyl-1-oxobutan-2-yl}amino)-2-oxoethoxy]pyrrolidin-1-yl}phenyl)-2,3,9-trimethyl-6H-thieno[3,2-f][1,2,4]triazolo[4,3-a][1,4]diazepin-6-yl]acetate] | 0.15 nM | 0.33 nM |
| COC(=O)C[C@@H]1N=C(c2ccc(-c3ccc(C(=O)N[C@H](C(=O)N4C[C@H](O)C[C@H]4C(=O)N[C@@H](C)c4ccc(-c5scnc5C)cc4)C(C)C)cc3)cc2)c2c(sc(C)c2C)-n2c(C)nnc21 [Example 210, methyl {(6S)-4-[4′-({(2S)-1-[(2S,4R)-4-hydroxy-2-({(1S)-1-[4-(4-methyl-1,3-thiazol-5-yl)phenyl]ethyl}carbamoyl)pyrrolidin-1-yl]-3-methyl-1-oxobutan-2-yl}carbamoyl)[1,1′-biphenyl]-4-yl]-2,3,9-trimethyl-6H-thieno[3,2-f][1,2,4]triazolo[4,3-a][1,4]diazepin-6-yl}acetate] | 0.26 nM | 0.29 nM |
| CCOC(=O)c1ncsc1-c1ccc(CNC(=O)[C@@H]2C[C@@H](O)CN2C(=O)[C@@H](NC(=O)c2ccc(-c3ccc(C4=N[C@@H](CC(=O)OC)c5nnc(C)n5-c5sc(C)c(C)c54)cc3)cc2)C(C)(C)C)cc1 [Example 219, ethyl 5-{4-[({(2S,4R)-4-hydroxy-1-[(2S)-2-({4′-[(6S)-6-(2-methoxy-2-oxoethyl)-2,3,9-trimethyl-6H-thieno[3,2-f] [1,2,4]triazolo[4,3-a][1,4]diazepin-4-yl][1,1′-biphenyl]-4-carbonyl}amino)-3,3-dimethylbutanoyl]pyrrolidine-2-carbonyl}amino)methyl]phenyl}-1,3-thiazole-4-carboxylate] | 0.52 nM | 0.52 nM |
| COC(=O)C[C@@H]1N=C(c2ccc(-c3ccc(CCC(=O)N[C@H](C(=O)N4C[C@H](O)C[C@H]4C(=O)N[C@@H](C)c4ccc(-c5scnc5C)cc4)C(C)(C)C)s3)cc2)c2c(sc(C)c2C)-n2c(C)nnc21 [Example 188, methyl [(6S)-4-(4-{5-[3-({(2S)-1-[(2S,4R)-4-hydroxy-2-({(1S)-1-[4-(4-methyl-1,3-thiazol-5-yl)phenyl]ethyl}carbamoyl)pyrrolidin-1-yl]-3,3-dimethyl-1-oxobutan-2-yl}amino)-3-oxopropyl]thiophen-2-yl}phenyl)-2,3,9-trimethyl-6H-thieno[3,2-f][1,2,4]triazolo[4,3-a][1,4]diazepin-6-yl]acetate] | 0.26 nM | 0.042 nM |
| COC(=O)C[C@@H]1N=C(c2ccc(-c3ccc(C(=O)N[C@H](C(=O)N4C[C@H](O)C[C@H]4C(=O)NCc4ccc(-c5ocnc5C)cc4)C(C)(C)C)cc3)cc2)c2c(sc(C)c2C)-n2c(C)nnc21 [Example 218, methyl {(6S)-4-[4′-({(2S)-1-[(2S,4R)-4-hydroxy-2-({[4-(4-methyl-1,3-oxazol-5-yl)phenyl]methyl}carbamoyl)pyrrolidin-1-yl]-3,3-dimethyl-1-oxobutan-2-yl}carbamoyl) [1,1′-biphenyl]-4-yl]-2,3,9-trimethyl-6H-thieno [3,2-f][1,2,4]triazolo [4,3-a] [1,4]diazepin-6-yl}acetate] | 0.41 nM | 0.37 nM |

The remaining compounds from weak to strong by DC50 [1], led by results:

| DC50 [1] | Compound | IC50 [2] |
| --- | --- | --- |
| 0.74 nM | COC(=O)C[C@@H]1N=C(c2ccc(-c3cccc(C(=O)N[C@H](C(=O)N4C[C@H](O)C[C@H]4C(=O)N[C@@H](C)c4ccc(-c5scnc5C)cc4)C(C)(C)C)c3)cc2)c2c(sc(C)c2C)-n2c(C)nnc21 [Example 60, methyl {(6S)-4-[3′-({(2S)-1-[(2S,4R)-4-hydroxy-2-({(1S)-1-[4-(4-methyl-1,3-thiazol-5-yl)phenyl]ethyl}carbamoyl)pyrrolidin-1-yl]-3,3-dimethyl-1-oxobutan-2-yl}carbamoyl)[1,1′-biphenyl]-4-yl]-2,3,9-trimethyl-6H-thieno[3,2-f][1,2,4]triazolo[4,3-a][1,4]diazepin-6-yl}acetate] | 0.12 nM |
| 0.53 nM | Cc1ncsc1-c1ccc([C@H](C)NC(=O)[C@@H]2C[C@@H](O)CN2C(=O)[C@@H](NC(=O)COc2ccc(-c3ccc(C4=N[C@@H](C)c5nnc(C)n5-c5sc(C)c(C)c54)cc3)cc2C#N)C(C)(C)C)cc1 [Example 16, (2S,4R)-1-{(2S)-2-[2-({3-cyano-4′-[(6S)-2,3,6,9-tetramethyl-6H-thieno[3,2-f][1,2,4]triazolo[4,3-a] [1,4]diazepin-4-yl][1,1′-biphenyl]-4-yl}oxy)acetamido]-3,3-dimethylbutanoyl}-4-hydroxy-N-{(1S)-1-[4-(4-methyl-1,3-thiazol-5-yl)phenyl]ethyl}pyrrolidine-2-carboxamide] | 0.29 nM |
| 0.51 nM | Cc1ncsc1-c1ccc([C@H](C)NC(=O)[C@@H]2C[C@@H](O)CN2C(=O)[C@@H](NC(=O)c2cc(F)c(-c3ccc(C4=N[C@@H](C)c5nnc(C)n5-c5sc(C)c(C)c54)cc3)cc2Cl)C(C)(C)C)cc1 [Example 204, (2S,4R)-1-[(2S)-2-({5-chloro-2-fluoro-4′-[(6S)-2,3,6,9-tetramethyl-6H-thieno[3,2-f][1,2,4]triazolo[4,3-a] [1,4]diazepin-4-yl][1,1′-biphenyl]-4-carbonyl}amino)-3,3-dimethylbutanoyl]-4-hydroxy-N-{(1S)-1-[4-(4-methyl-1,3-thiazol-5-yl)phenyl]ethyl}pyrrolidine-2-carboxamide] | 0.32 nM |
| 0.097 nM | COC(=O)C[C@@H]1N=C(c2ccc(-c3ccc(OC(F)(F)C(=O)N[C@H](C(=O)N4C[C@H](O)C[C@H]4C(=O)N[C@@H](C)c4ccc(-c5scnc5C)cc4)C(C)(C)C)cc3)cc2)c2c(sc(C)c2C)-n2c(C)nnc21 [Example 122, methyl [(6S)-4-{4′-[1,1-difluoro-2-({(2S)-1-[(2S,4R)-4-hydroxy-2-({(1S)-1-[4-(4-methyl-1,3-thiazol-5-yl)phenyl]ethyl}carbamoyl)pyrrolidin-1-yl]-3,3-dimethyl-1-oxobutan-2-yl}amino)-2-oxoethoxy][1,1′-biphenyl]-4-yl}-2,3,9-trimethyl-6H-thieno[3,2-f][1,2,4]triazolo[4,3-a][1,4]diazepin-6-yl]acetate] | 0.4 nM |
